Data from article PMC8668980, “Development of a versatile HPLC-based method to evaluate the activation status of small GTPases” (The Journal of Biological Chemistry, 2021).

Legend:
Flag-RHEB [1] = biological target: T1, Flag-RHEB (Homo sapiens, UniProt Q15382, S68P); assay: IP-RP-HPLC of nucleotide co-purified with Flag protein from HeLa; format: cell-based; details: nucleotide loaded in cells; 5 mM then 1 mM MgCl2 washes
T1 construct: Flag-tagged, dox-inducible in HeLa, anti-Flag immunopurified
T1 sequence (Q15382 1-181 S68P): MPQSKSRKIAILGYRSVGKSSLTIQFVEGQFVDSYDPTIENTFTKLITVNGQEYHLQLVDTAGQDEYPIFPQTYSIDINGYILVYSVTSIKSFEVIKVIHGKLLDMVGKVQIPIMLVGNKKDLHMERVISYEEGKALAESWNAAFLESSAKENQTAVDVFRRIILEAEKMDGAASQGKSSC

GST-RHEB [2] = biological target: T2, GST-RHEB (Homo sapiens, UniProt Q15382, S68P); assay: single-turnover GTPase assay of bound GTP by IP-RP-HPLC; format: biochemical; details: Flag-TSC1/2 beads (GAP); 5 mM MgCl2, pH 7.5, 30 °C
T2 construct: residues 1-180, N-terminal GST fusion (pCold GST) kept, E. coli, glutathione-Sepharose purified
T2 sequence (Q15382 1-180 S68P): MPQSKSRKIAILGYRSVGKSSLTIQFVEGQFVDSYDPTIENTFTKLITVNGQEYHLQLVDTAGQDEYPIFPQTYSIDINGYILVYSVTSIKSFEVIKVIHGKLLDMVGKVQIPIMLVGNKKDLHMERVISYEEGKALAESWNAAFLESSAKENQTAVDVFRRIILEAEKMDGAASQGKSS

Flag-RHEB [3] = biological target: T3, Flag-RHEB (Homo sapiens, UniProt Q15382, Q64L); assay: IP-RP-HPLC of nucleotide co-purified with Flag protein from HeLa; format: cell-based; details: nucleotide loaded in cells; 5 mM then 1 mM MgCl2 washes
T3 construct: Flag-tagged, dox-inducible in HeLa, anti-Flag immunopurified
T3 sequence (Q15382 1-181 Q64L): as the sequence (Q15382 1-181 S68P) above, with Q64L, P68S counted along it

DIRAS2 = biological target: T4, DIRAS2 (Homo sapiens, UniProt Q96HU8); assay: as above; format: cell-based; details: nucleotide loaded in cells; 5 mM then 1 mM MgCl2 washes
T4 construct: Flag-tagged, dox-inducible in HeLa, anti-Flag immunopurified
T4 sequence (Q96HU8 1-196): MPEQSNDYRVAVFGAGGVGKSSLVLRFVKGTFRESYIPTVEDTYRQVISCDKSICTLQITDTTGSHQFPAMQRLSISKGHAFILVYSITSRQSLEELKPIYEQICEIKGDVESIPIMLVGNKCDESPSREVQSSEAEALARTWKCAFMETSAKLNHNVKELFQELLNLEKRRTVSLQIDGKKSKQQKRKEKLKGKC

HRAS = biological target: T5, HRAS (Homo sapiens, UniProt P01112); assay: as above; format: cell-based; details: nucleotide loaded in cells; 5 mM then 1 mM MgCl2 washes
T5 construct: Flag-tagged, dox-inducible in HeLa, anti-Flag immunopurified
T5 sequence (P01112 2-186): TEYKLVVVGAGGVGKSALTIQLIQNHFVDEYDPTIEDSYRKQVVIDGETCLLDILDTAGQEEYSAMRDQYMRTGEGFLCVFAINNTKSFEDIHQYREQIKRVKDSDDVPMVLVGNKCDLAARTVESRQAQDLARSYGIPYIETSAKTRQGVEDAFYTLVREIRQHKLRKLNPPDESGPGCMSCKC

DIRAS1 = biological target: T6, DIRAS1 (Homo sapiens, UniProt O95057); assay: as above; format: cell-based; details: nucleotide loaded in cells; 5 mM then 1 mM MgCl2 washes
T6 construct: Flag-tagged, dox-inducible in HeLa, anti-Flag immunopurified
T6 sequence (O95057 1-195): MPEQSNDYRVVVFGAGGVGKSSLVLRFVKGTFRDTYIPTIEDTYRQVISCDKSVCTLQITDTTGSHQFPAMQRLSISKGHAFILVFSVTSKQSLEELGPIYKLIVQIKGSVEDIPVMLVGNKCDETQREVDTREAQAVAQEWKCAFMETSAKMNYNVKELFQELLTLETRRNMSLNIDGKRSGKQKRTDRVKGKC

Flag-RHEB [4] = biological target: T7, Flag-RHEB (Homo sapiens, UniProt Q15382, P37L); assay: as above; format: cell-based; details: nucleotide loaded in cells; 5 mM then 1 mM MgCl2 washes
T7 construct: Flag-tagged, dox-inducible in HeLa, anti-Flag immunopurified
T7 sequence (Q15382 1-181 P37L): as the sequence (Q15382 1-181 S68P) above, with P37L, P68S counted along it

GST-RHEB [5] = biological target: T8, GST-RHEB (Homo sapiens, UniProt Q15382); assay: [3H]GDP-dissociation assay, filter binding; details: labelled compound; 5 μM [3H]GDP preload with 10 mM EDTA, chase 200 μM GTPγS; 5 mM MgCl2, pH 7.5, 30 °C
T8 construct: residues 1-180, N-terminal GST fusion (pCold GST) kept, E. coli, glutathione-Sepharose purified
T8 sequence (Q15382 1-180): as the sequence (Q15382 1-180 S68P) above, with P68S counted along it

Flag-RHEB [6] = biological target: T9, Flag-RHEB (Homo sapiens, UniProt Q15382); assay: IP-RP-HPLC of nucleotide co-purified with Flag protein from HeLa; format: cell-based; details: nucleotide loaded in cells; 5 mM then 1 mM MgCl2 washes
T9 construct: Flag-tagged, dox-inducible in HeLa, anti-Flag immunopurified
T9 sequence (Q15382 1-181): as the sequence (Q15382 1-181 S68P) above, with P68S counted along it

GST-RHEB [7] = biological target: T10, GST-RHEB (Homo sapiens, UniProt Q15382, P37L); assay: [3H]GDP-dissociation assay, filter binding; details: labelled compound; 5 μM [3H]GDP preload with 10 mM EDTA, chase 200 μM GTPγS; 5 mM MgCl2, pH 7.5, 30 °C
T10 construct: residues 1-180, N-terminal GST fusion (pCold GST) kept, E. coli, glutathione-Sepharose purified
T10 sequence (Q15382 1-180 P37L): as the sequence (Q15382 1-180 S68P) above, with P37L, P68S counted along it

GST-RHEB [8] = biological target: T8, GST-RHEB; assay: […]GTPγS filter binding time course; details: labelled compound; 5 μM [35S]GTPγS, 5 mM MgCl2, pH 7.5, 30 °C

SMILES	IP-RP-HPLC of nucleotide co-purified with Flag protein from HeLa (Flag-RHEB [1])	single-turnover GTPase assay of bound GTP by IP-RP-HPLC (GST-RHEB [2])	IP-RP-HPLC of nucleotide co-purified with Flag protein from HeLa (Flag-RHEB [3])	IP-RP-HPLC of nucleotide co-purified with Flag protein from HeLa (DIRAS2)	IP-RP-HPLC of nucleotide co-purified with Flag protein from HeLa (HRAS)	IP-RP-HPLC of nucleotide co-purified with Flag protein from HeLa (DIRAS1)	IP-RP-HPLC of nucleotide co-purified with Flag protein from HeLa (Flag-RHEB [4])	[3H]GDP-dissociation assay, filter binding (GST-RHEB [5])	IP-RP-HPLC of nucleotide co-purified with Flag protein from HeLa (Flag-RHEB [6])	[3H]GDP-dissociation assay, filter binding (GST-RHEB [7])	[35S]GTPγS filter binding time course (GST-RHEB [8])
Nc1nc2c(ncn2[C@@H]2O[C@H](COP(=O)(O)OP(=O)(O)OP(=O)(O)O)[C@@H](O)[C@H]2O)c(=O)[nH]1 [GTP]	both RHEB/P37L and RHEB/S68P showed increases in their GTP-bound forms	it weakly but significantly promoted that of GST-RHEB/S68P	marked increase in the ratio of the GTP-bound form of RHEB/Q64L compared with RHEB/WT	We could reproducibly quantify the amount of GDP and GTP bound to each small GTPase	We could reproducibly quantify the amount of GDP and GTP bound to each small GTPase	We could reproducibly quantify the amount of GDP and GTP bound to each small GTPase	both RHEB/P37L and RHEB/S68P showed increases in their GTP-bound forms				
Nc1nc2c(ncn2[C@@H]2O[C@H](COP(=O)(O)OP(=O)(O)O)[C@@H](O)[C@H]2O)c(=O)[nH]1 [GDP]				We could reproducibly quantify the amount of GDP and GTP bound to each small GTPase	We could reproducibly quantify the amount of GDP and GTP bound to each small GTPase	We could reproducibly quantify the amount of GDP and GTP bound to each small GTPase		the dissociation rates of the WT and P37L proteins were comparable	Representative chromatogram of guanine nucleotides bound to Flag-RHEB/WT in HeLa cells	the dissociation rates of the WT and P37L proteins were comparable	
Nc1nc2c(ncn2[C@@H]2O[C@H](COP(=O)(O)OP(=O)(O)OP(O)(O)=S)[C@@H](O)[C@H]2O)c(=O)[nH]1 [GTPγS]											GTPγS-binding rate of RHEB/S68P was enhanced compared with that of RHEB/WT and RHEB/P37L
